Read-outs that look alike come from different tables or passages of the source.
System: Plasmodium falciparum Dd2 asexual blood stage parasites
Test: microbe, parasite or virus in culture
Design: species or system Plasmodium falciparum Dd2 in human erythrocytes; single determination (one 11-point concentration-response curve)
Details: Plasmodium falciparum, DD2, Erythrocyte, 72 h

| Compound | AC50 (read-out: AC50) | AC50 |
| --- | --- | --- |
| COc1ccc(NS(=O)(=O)c2cc(NC(=O)/C=C/c3cc(OC)c(OC)c(OC)c3)ccc2N2CCCCC2)cc1 [MLS000394995-01] | 6.68 µM |  |
| Cc1ccc(Cl)cc1N1CCN(C(=O)c2cn(CC(C)C)c(=O)c3c2c2ccccc2n3C)CC1 [NCGC00106023-01] | 3.35 µM |  |
| CCC(=O)C1=C(c2ccc(OC)c(OC)c2)N(C(=O)CC)n2c(CC)nnc2S1 [NCGC00137256-01] | 4.73 µM |  |
| CCCC(O)(c1ccc(Cl)cc1)C(CN1CCOCC1)c1ccc(Cl)cc1 (stereo not shown) [MLS001200366-01] | 4.73 µM |  |
| COc1ccc(-c2nnc(C[C@@H]3C[C@@H](C(C)C)[C@H](CNCc4cccnc4)C=C3C)o2)cc1 [NCGC00394182-01] | 6.68 µM |  |
| CN(C)c1cccc(Nc2cc3c(cn2)CN(Cc2ccccc2)CCN3)c1 [NCGC00411230-01] | 13.7 µM |  |
| Cc1cccc(OC(C)C(=O)NCC2(N(C)C)CCCCC2)c1C (stereo not shown) [NCGC00118727-01] |  | 8.41 µM |
| CCC(C)(C)n1nnnc1C(c1ccccc1OC)N1CCN(C(=O)c2ccco2)CC1 (stereo not shown) [MLS001221981-01] | 15 µM |  |
| COc1cccc(C2=C(C(C)=O)Sc3nnc(C4CCCCC4)n3N2C(C)=O)c1 [NCGC00137294-01] | 4.73 µM |  |
| CN1C(=O)C2(c3ccccc31)N(C)CC(c1ccccc1)C21SC(=S)N(Cc2ccco2)C1=O (stereo not shown) [MLS000559203-01] | 13.3 µM |  |
| Cc1ccc(NC(=O)N(Cc2ccc3c(c2)OCO3)Cc2cc3cc4c(cc3[nH]c2=O)OCCO4)cc1 [MLS000033889-01] | 6.68 µM |  |
| Cc1nnc(NC(=O)C2c3ccccc3C(=O)N(CC(C)C)C23CCCCC3)s1 (stereo not shown) [NCGC00423223-01] | 15 µM |  |
| Cn1ccc(NCc2nnc(C(=O)N3CCC[C@@H]3C(c3ccccc3)c3ccccc3)n2-c2ccccc2)n1 [NCGC00415774-01] | 1.33 µM |  |
| COc1cccc(-c2cc(C(=O)Nc3ccncc3)c3ccccc3n2)c1 [MLS001125696-01] | 6.68 µM |  |
| Oc1ccccc1CN1CCOC[C@H]1c1nc(-c2ccc(C(F)(F)F)cc2)c[nH]1 [NCGC00394286-01] | 4.85 µM |  |
| COc1ccc(-c2nc3sc(CCNC(=O)c4ccc(C(C)(C)C)cc4)c(C)n3n2)cc1 [NCGC00137079-01] | 2.11 µM |  |
| CCn1cc(C(=O)NCCCN2CCCC(C)C2)c(=O)c2cc([S+](=O)([O-])N(C)C3CCCCC3)ccc21 (stereo not shown) [NCGC00109162-01] | 8.41 µM |  |
| COc1cccc(-c2nc(-c3c(C)noc3C)cc3c2cc(C)n3CCN(C)C)c1 [NCGC00417217-01] | 17.2 µM |  |
| CC12CC3CC(C)(C1)CC(Nc1nc(N4CCOCC4)nc4ccccc14)(C3)C2 [MLS000332322-01] | 9.44 µM |  |
| CN(C)CCNC(=O)c1cc(-c2ccccc2F)cc2c1OCCN2Cc1cccnc1 [NCGC00416987-01] | 6.85 µM |  |
| Cc1c(O)c(CN(C)C)cc2c1oc(=O)c1ccccc12 [MLS000778334-01] | 4.22 µM |  |
| O=C(NCCc1c[nH]c2ccccc12)[C@@H]1C[C@H]2C(=O)NCCCCCCN(C(=O)c3ccco3)[C@H]2C1 [NCGC00465014-01] | 10.6 µM |  |
| COc1ccc(-c2noc(-c3cccn3CC(=O)Nc3ccccc3C)n2)cc1F [NCGC00445484-01] | 5.31 µM |  |
| COCCNC(=O)CSc1nc(-c2cc(OC)c(OC)c(OC)c2)[nH]c1-c1ccc(Cl)cc1 [NCGC00107926-01] | 8.41 µM |  |
| CCCCCCC(O)(c1ccc(OC)cc1)C(CN1CCOCC1)c1ccccc1 (stereo not shown) [MLS001198921-01] | 4.22 µM |  |
| Cc1nn(-c2ccccc2)c2c1C(O)n1c(nc3ccccc31)S2 (stereo not shown) [MLS000081954-01] | 5.31 µM |  |
| Cc1cc(OC2CN([S+](=O)([O-])c3cccs3)C2)ccc1F [NCGC00476695-01] | 15.3 µM |  |

| Compound | AC50 (read-out: AC50) | AC50 |
| --- | --- | --- |
| O=C(CC[S+](=O)([O-])c1cc(Br)cc2c1N(C(=O)C1CC1)CC2)N1CCN(c2cccc(Cl)c2)CC1 [NCGC00107190-01] | 13.3 µM |  |
| CCN(CC)c1ccc2oc(=O)c(C)nc2c1 [MLS000062529-01] | 6.68 µM |  |
| CCN(c1ccccc1)[S+](=O)([O-])c1cc(Br)cc2c1N(C(=O)C1CC1)CC2 [NCGC00104258-01] | 2.99 µM |  |
| C[C@H]1[C@@H]2[C@@H](O)C([C@H](C)C(=O)NCc3cc(F)cc(F)c3)CC[C@@]2(C)CC[C@@H]1NC(=O)c1cncnc1 (stereo partly shown) [NCGC00395377-01] | 4.22 µM |  |
| COC(=O)c1nc2n(n1)C(c1ccc([N+](=O)[O-])cc1)C(C(=O)Nc1ccc(Cl)cc1)=C(C)N2 (stereo not shown) [MLS000582454-01] | 5.31 µM |  |
| CN1CCC2(C1)CN(Cc1ccccc1)c1ccc(C(=O)Nc3ccc(F)cc3)cc12 (stereo not shown) [NCGC00419355-01] | 19.3 µM |  |
| COc1ccc(-c2cc(C[C@@H]3CC[C@H](O)[C@@H](CNCc4ccccc4OC)O3)no2)cc1 [NCGC00421057-01] | 3.44 µM |  |
| Cc1ccc(NC(=O)CC2SC(NC3CCCCC3)=NC2=O)cc1 (stereo not shown) [MLS000700518-01] | 11.9 µM |  |
| CC1=C(C(=O)Nc2ccccc2)C(c2cc(Br)ccc2F)n2ncc(C(=O)Nc3ccccc3)c2N1 (stereo not shown) [NCGC00126266-01] | 1.68 µM |  |
| COc1ccc(-c2cc(-c3ccc(N4CCOCC4)nc3)cn3cncc23)cc1 [NCGC00412184-01] | 7.69 µM |  |
| O=C(c1cccs1)c1cn(CCOc2ccc(Cl)cc2)c2ccccc12 [NCGC00101601-01] |  | 5.96 µM |
| O=C(Nc1ccncc1)Nc1ccc(Cl)cc1 [MLS001224591-01] | 10.6 µM |  |
| O=C1NCN(Cc2ccc(Cl)cc2)C12CCN(CC1CC1)CC2 [NCGC00478768-01] | 9.68 µM |  |
| CCN(CC)CCNC(O)=C1C(=O)c2cccc3c2N(CCC3)C1=O [MLS000078957-01] | 10.6 µM |  |
| Cc1ncc(CN2CCC(C(=O)Nc3ccc(-n4cccn4)cc3)CC2)s1 [MLS001101085-01] | 4.73 µM |  |
| CCOC(=O)c1ccccc1NC(=O)C(C)Oc1ccccc1 (stereo not shown) [MLS000109889-01] | 10.6 µM |  |
| CCOC(=O)c1sc(NC(=O)c2nc3ncccn3n2)c(C(=O)OC(C)C)c1C [NCGC00141358-01] | 2.66 µM |  |
| CCOc1ccc(C(C)NC(S)=NC2CCCCC2)cc1OCC (stereo not shown) [MLS001007596-01] | 0.211 µM |  |
| CN(C)CC1CSCCC1(O)c1ccccc1Cl (stereo not shown) [MLS000546783-01] | 5.96 µM |  |
| Cc1nn(-c2ccccc2)c2c1C(c1cccnc1)N1C=C(S(=O)(=O)N3CCCCC3)C=CC1=N2 (stereo not shown) [MLS000863363-01] | 15 µM |  |
| Cc1ccc(N(Cc2cccs2)C(=O)C(C)Oc2ccc(Cl)c(C)c2)cc1 (stereo not shown) [NCGC00119071-01] | 7.5 µM |  |
| COc1cc2c(cc1OCc1cccnc1)N(C(=O)c1ccc(Oc3ccccc3)cc1)CC21CCN(CC(=O)O)CC1 [NCGC00419910-01] | 5.96 µM |  |
| CN(C)CCCNc1ccc(-c2cc(Nc3cccc(Cl)c3)ncn2)cn1 [MLS000911553-01] | 9.44 µM |  |
| CC(Oc1ccccc1)C(=O)Nc1nc(-c2ccccn2)cs1 (stereo not shown) [MLS002158763-01] | 8.41 µM |  |
| Cc1nc(-c2cccc(Cl)c2)n(CC(=O)Nc2ccc(C(F)(F)F)cc2)c(=O)c1CCO [NCGC00471081-01] | 13.3 µM |  |
| CC1CCCN(Cc2c(O)ccc3c(=O)c(Oc4ccc(C(C)(C)C)cc4)c(C(F)(F)F)oc23)C1 (stereo not shown) [NCGC00100587-01] | 0.299 µM |  |
| CN(C)CCNCc1ccc(-c2ccccc2)o1 [NCGC00326685-02] | 10.6 µM |  |

| Compound | AC50 (read-out: AC50) | AC50 |
| --- | --- | --- |
| O=c1nc(C2CCCN(CC3CCCCC3)C2)[nH]n1-c1ccc(Cl)cc1 (stereo not shown) [NCGC00477729-01] | 6.68 µM |  |
| O=C(Nc1ccc(N2CCOCC2)c(Cl)c1)c1nc[nH]n1 [MLS000072688-01] | 9.44 µM |  |
| Cc1ccc(CN2CCC(CNC(=O)c3cnn(-c4ccc(C)cc4)c3C3CCN(C(=O)OC(C)(C)C)CC3)CC2)cc1 [NCGC00126945-01] | 8.41 µM |  |
| CC1=C[C@@H](CN2CCC(C)CC2)[C@H](C(C)C)C[C@H]1Cc1nnc(-c2cccnc2)o1 [NCGC00421463-01] | 15.3 µM |  |
| Cc1cc(NCc2ccco2)nc2cc(O)ccc12 [MLS000118315-01] | 6.68 µM |  |
| OCc1cccc(-c2ccc3ncc(Nc4ccc(OCCN5CCCC5)cc4)n3n2)c1 [NCGC00412543-01] | 3.44 µM |  |
| COC1CCN(C(=O)C(C)(C)Oc2nn(CC3CC3)c3ccc(CN4CCCC4)cc23)CC1 [NCGC00419576-01] | 9.44 µM |  |
| CN1N=C2c3ccccc3CCC2C1c1ccc(F)cc1 (stereo not shown) [MLS000861852-01] | 5.96 µM |  |
| COc1ccc(C(=O)N[C@@H]2CN(Cc3cccc(OC)c3)CCC[C@H]2O)cc1 [NCGC00401653-01] | 10.9 µM |  |
| CC(C)C(=O)N1Cc2ccccc2OC2(CCN(C(C)C)CC2)C1 [NCGC00456474-01] | 10.6 µM |  |
| COCCCNC(=O)C1(C)CN(C)Cc2ccc(Nc3ccccc3)nc21 (stereo not shown) [NCGC00414477-01] | 6.85 µM |  |
| CCOC(=O)C1=Nc2ccccc2C1=[N+]=[N-] [MLS000079382-01] | 4.22 µM |  |
| COc1ccc(-c2c(C#Cc3ccsc3)c3cc(-c4cccc5[nH]ccc45)ccc3n2C)cc1 [MLS002391587-01] | 6.68 µM |  |
| COc1cc(/C=C(\C#N)c2nc3ccccc3[nH]2)cc(Cl)c1OCc1ccccc1Cl [NCGC00102602-01] | 5.31 µM |  |
| CC1=C[C@@H](CN2CCOCC2)[C@H](C(C)C)C[C@H]1Cc1nnc(-c2ccc([N+](=O)[O-])cc2)o1 [NCGC00394583-01] | 9.44 µM |  |
| O=C(c1ccc(-c2ncc3cnc(-c4ccccc4)cn23)cc1)N1CCc2cccnc21 [NCGC00413975-01] | 17.2 µM |  |
| O=C(Nc1nc2ccccc2n1Cc1ccccc1)c1ccc(COc2ccccc2[N+](=O)[O-])o1 [MLS000543610-01] | 16.8 µM |  |
| CN1CCN(C(=O)C2(N(C)CCc3ccccc3)Cc3ccccc3C2)CC1 [NCGC00438807-01] | 2.66 µM |  |
| CC(=O)N1c2c(cc(Br)cc2[S+](=O)([O-])N2CCN(c3cc(C)ccc3C)CC2)CC1C (stereo not shown) [NCGC00104358-01] | 11.9 µM |  |
| COCCOc1ccnc(-c2noc([C@@H]3CCCN3Cc3cn(C)c4ccccc34)n2)c1 [NCGC00394869-01] | 19.3 µM |  |
| Cc1ccc(CN2CCc3oc(C)c(C(=O)NCCN4CCCCC4)c3C2)cc1 [NCGC00471970-01] | 10.6 µM |  |
| Cc1c(Cl)cccc1Nc1nn2c(=O)c3ccc(C(=O)N(C)Cc4ccccc4)cc3nc2s1 [NCGC00125571-01] | 16.8 µM |  |
| O=c1nc(C2CCCN(Cc3ccccn3)C2)[nH]n1-c1ccc(Cl)cc1 (stereo not shown) [NCGC00477746-01] | 2.37 µM |  |
| CCNc1nc(NCc2ccccc2)nc(Oc2ccc(=O)[nH]n2)n1 [MLS000097254-01] | 2.11 µM |  |
| COc1ccc2[nH]c(C)c(CCN(Cc3cccs3)C(S)=Nc3ccc(F)cc3)c2c1 [MLS000529849-01] | 4.22 µM |  |
